Measurements published in patent US10472663B2, “Procedure for the rapid determination of bacterial susceptibility to antibiotics that inhibit protein synthesis” (ABM TECHNOLOGIES, LLC, priority 2015, dated 2019).
≈ marks a conversion by molar mass, not a printed value.

Experiments:
[1] = tested on: Staphylococcus aureus; experiment: Micromax assay of DNA fragmentation by DNase released with lysostaphin after azithromycin (Example 3); format: cell-based; details: for DNA fragmentation of released nucleoids: azithromycin 2 μg/ml 120 min followed by lysostaphin 10 μg/ml 1 min
Protocol: In an exemplification of this principal, two strains of S. aureus growing in Mueller-Hinton agar with 5% sheep blood were assayed. One strain was susceptible to the macrolide azithromycin (an inhibitor of protein synthesis) (FIGS. 13-15) and the other strain was a clinical isolate resistant to azithromycin (FIGS. 16-18). The purpose was to rapidly distinguish susceptible and non-susceptible strains to azithromycin. Cultures were processed direct from standard growing agar plates 18-24 h and it was not necessary the cells being exponentially growing previously to the assay.
Each of these strain was subjected to four treatments. One portion of both strains was incubated with azithromycin at 2 μg/ml for 120 min; 2 μg/ml being indicated by the CLSI as the breakpoint of susceptibility to azithromycin. The cells were then lysed to release nucleoids and images of FIGS. 13 and 16 were generated. Another portion of each strain was incubated with lysostaphin at 10 μg/ml for 1 min. FIGS. 14 and 17 depict the nucleoids released in each strain for this treatment. Still another portion was incubated with Azithromycin at 2 μg/ml for 120 min followed by lysostaphin at 10 μg/ml for 1 min, without removing the azithromycin. The assays for these treatments can be seen at FIGS. 15 and 18. A final portion was left without either antibiotic.
After the incubation, the cells were processed using the variant of a Micromax technology to lyse cells with affected cell walls. As indicated previously, samples from cells from the culture are immersed in an agarose microgel on a slide and incubated with a specific lysing solution to remove the cell wall in those cells affected by lysostaphin and release in the microgel the nucleoids contained inside the bacteria. These are dried, stained with a highly sensitive fluorochrome for DNA like SYBR Gold and visualized under fluorescence microscopy.

[2] = tested on: H. influenzae; experiment: Cell enlargement by low-dose mitomycin C after azithromycin; format: cell-based, Haemophilus influenzae; details: azithromycin 4 μg/ml 30 min followed by mitomycin C 0.5 μg/ml 120 min; azithromycin-resistant strain
Protocol: In one exemplification, two strains of H. influenzae exponentially growing in Mueller-Hinton broth were incubated under four differing treatments and then assayed. One strain was susceptible and the other resistant to the macrolide azithromycin (an inhibitor of protein synthesis). For the purpose of rapidly distinguishing the susceptible and the resistant strain to azithromycin each strain was incubated under four sets of conditions.
A portion of each strain was incubated with azithromycin at 4 μg/ml for 150 minutes. The dose azithromycin corresponded to the dose indicated by the CLSI as the breakpoint of susceptibility to azithromycin in the standard antibiograms based on microdilution. Another portion of each strain was incubated with Mitomycin C at 0.5 μg/ml for 120 minutes. Still another portion was incubated with azithromycin at 4 μg/ml for 30 min followed by mitomycin C at 0.5 μg/ml for 120 min, without removing the azithromycin. A final portion of each strain was not incubated with any antibiotics.

[3] = tested on: S. pneumoniae; experiment: MIC, standard antibiogram based on microdilution; format: cell-based; details: Streptococcus pneumoniae
Protocol: A quantitative method may rely on dilution in a series of broths or agar solutions having progressively lower concentrations of the antibiotic in question. The lowest concentration of antibiotic in which the bacteria cannot grow provides the minimum inhibitory concentration of that antibiotic to the tested strain of bacteria. This quantitative method may be routinely employed in the hospitals, usually using commercial panels of antibiotics and semi-automated systems of incubation and software for data interpretation like the MicroScan WalkAway™ (Siemens), Phoenix (Becton Dickinson), or Vitek™ 2 (bioMérieux). With such growth-dependent automated systems, results of susceptibility or resistance to antimicrobians from a specific microorganism may be obtained in around 6-9 hours.
(§1) In an exemplification of this principal, two strains of S. pneumoniae growing in Mueller-Hinton II broth complemented with cations and 2-5% lysed horse blood, at 37° C. with 5% CO2, were assayed. […] The purpose of the assay was to distinguish rapidly the susceptible and the resistant (i.e. non-susceptible) strain to azithromycin.

[4] = tested on: S. pneumoniae; experiment: Micromax assay of autolysis and DNA fragmentation induced by Triton-lysozyme-EDTA after azithromycin (Example 4); format: cell-based, Streptococcus pneumoniae; details: for cells lysed and with fragmented DNA: azithromycin 0.5 μg/ml 60 min followed by Triton-lysozyme-EDTA 5 min; for less fragmentation than incubation with Triton-lysozyme-EDTA alone: azithromycin 0.5 μg/ml 60 min followed by Triton-lysozyme-EDTA
Protocol: as §1
Each of these two strains were subjected to four treatments. A first portion of both strains was incubated with azithromycin at a concentration of 0.5 μg/ml for 60 min. The dose was that indicated by the CLSI as the breakpoint of susceptibility to azithromycin in the standard antibiogram based on microdilution. Another portion of both strains was incubated with 0.05% Triton X-100, 2 mg/ml lysozyme, 25 mM EDTA, 5 min. Still another portion of each strain was incubated with azithromycin at 0.5 μg/ml for 60 min followed by 0.05% Triton X-100, 2 mg/ml lysozyme, 25 mM EDTA, 5 min, without removing the azithromycin. A final portion of each strain remained without any antibiotics.
After incubation cells were processed using the variant of the Micromax technology to visualize the nucleoids. In the same manner indicated previously, samples from cells from the culture are immersed in an agarose microgel on a slide and incubated with a specific lysing solution to remove the cell wall in all the cells and release in the microgel the nucleoids contained inside the bacteria. […] The microgels are dried, stained with a high sensitive fluorochrome for DNA like SYBR Gold and visualized under fluorescence microscopy.

[5] = azithromycin-susceptible strain

MIC ([3]; azithromycin-resistant strain): > 32 µg/mL | MIC [3, 5]: 0.25 µg/mL (≈ 0.334 µM)
Compound: CC[C@H]1OC(=O)[C@H](C)[C@@H](O[C@H]2C[C@@](C)(OC)[C@@H](O)[C@H](C)O2)[C@H](C)[C@@H](O[C@@H]2O[C@H](C)C[C@H](N(C)C)[C@H]2O)[C@](C)(O)C[C@@H](C)CN(C)[C@H](C)[C@@H](O)[C@]1(C)O [azithromycin]
DNA fragmentation of released nucleoids ([1]; azithromycin-resistant clinical isolate): a large extend of DNA fragmentation | DNA fragmentation of released nucleoids [1, 5]: strongly reduced level of DNA fragmentation or even suppression of DNA fragmentation | modification of the appearance of the bacteria ([1]; azithromycin alone 2 μg/ml 120 min, both strains): did not result in modification of the appearance of the bacteria | cell enlargement [2]: the bacteria appeared enlarged | cells lysed and with fragmented DNA ([4]; resistant strain): 86% | cells lysed and with fragmented DNA ([4]; susceptible strain): about 40% | less fragmentation than incubation with Triton-lysozyme-EDTA alone ([4]; resistant strain): 7% | less fragmentation than incubation with Triton-lysozyme-EDTA alone ([4]; susceptible strain): 44% | modification of the bacteria ([4]; azithromycin alone 0.5 μg/ml 60 min, both strains): did not result in modification of the bacteria
